Experimental data as given in patent US20230413812A1, “SANITIZING COMPOSITIONS CONTAINING IONIC LIQUID” (CAGE BIO, INC., priority 2020, published 2023).

Legend:
Format in all cases: cell-based
[1] = test system: Escherichia coli (E. coli); assay: Residual self-sanitizing activity on hard, non-porous glass surface per EPA Protocol 01-1A (manual wear cycles); settings: in CGB-D-100 disinfectant; lowest concentration tested
Description: The purpose of this study is to test residual self-sanitizing activity of CGB-D-100 disinfectant per EPA protocol 01-1A, “Residual Self-Sanitizing Activity of Dried Chemical Residues on Hard, Non-Porous Surfaces.”
The scope of this study is to evaluate residual self-sanitizing activity of CGB-D-100 disinfectant with three different concentrations of CG-101, and to compare it to a marketed disinfectant (Microban® 24). Glass surface (microscope slides) will be used as a non-porous surface. Sterile saline solution will be used as a negative control and Microban® 24 will be used as the positive control. The method will simulate contact and touches by incorporating wear or wiping of the test surface as well as reinoculations of the test and control surfaces over 24 hours. The EPA protocol requires the use of an automated abrasion tester to simulate wear from wiping the surface. For the purposes of this protocol, abrasion or wear were be performed manually using cotton wipes.
First, the glass slides will be washed with a non-medical soap and water followed by cleaning with 70% alcohol and allowed to air dry. […]
Test product, negative control, and positive control will be applied to replicate test surfaces according to the product's Directions for Use or until surface is completely wet. […] The temperature and humidity in the lab will be recorded. […]

[2] = Antimicrobial efficacy time kill test (ASTM E2783-11, neutralization per E1054-08)
Method: The purpose of this study was to test antimicrobial efficacy of 1%, 3%, and 5% CG-101 disinfectant formulations.
The study was performed using the following standard protocols: • I. American Society for Testing and Materials. Standard Test Methods for Evaluation of
Inactivators of Antimicrobial Agents; Designation: E1054-08 (Reapproved 2013). West Conshohocken, PA. • II. American Society for Testing and Materials. Standard Test Method for Assessment of Antimicrobial Activity for Water Miscible Compounds Using a Time-Kill Procedure. Designation: E2783-11 (Reapproved 2016). West Conshohocken, PA.
Initial neutralization testing confirmed that the test material was adequately neutralized at all concentrations tested. The time kill procedure included triplicate testing and all plate counts were performed in duplicate
CG-101 was added to water to form mixtures of 1 wt %, 3 wt %, and 5 wt % of CG-101.

E. coli = assay: Self-sanitizing activity of CG-101 in water and aqueous Poloxamer 407 on a surface with dried inoculum, 5 min contact
Method: This study was conducted to test the residual self-sanitizing activity of samples containing 5% CG-101 in water, in 5% aqueous […], and in 10% aqueous Poloxamer 407. Parameters of the experiments are listed below:
• Water (Negative Control) • 5% CG-101 Aqueous Solution (Positive Control) • 5% CG-101 in 5% Poloxamer 407 Aqueous Solution • 5% CG-101 in 10% Poloxamer 407 Aqueous solution
• 10 μl of E. coli suspension was applied on the surface and dried over 30 min • 1 ml of each test sample and control was applied on the surface with a dry inoculum • Contact time of 5 min was used • Neutralization was performed immediately after the contact time • 100 μl from each solution was plated onto agar plates and transferred to incubator set at 37 C for 48 hr. • Bacterial growth was observed after 48 hr. In the incubator.

[3] = 1 wt % CG-101 in water, 1 minute
[4] = 1 wt % CG-101 in water, 5 minutes
[5] = 1 wt % CG-101 in water, at seconds
[6] = 3 wt % CG-101 in water, 1 minute
[7] = 3 wt % CG-101 in water, 5 minutes
[8] = 3 wt % CG-101 in water, at seconds
[9] = 5 wt % CG-101 in water, 1 minute
[10] = 5 wt % CG-101 in water, 5 minutes
[11] = 5 wt % CG-101 in water, at seconds

Choline geranate [CG-101]
concentration of CG-101 sufficient to kill all applied bacteria and to preserve the glass surface for 24 h [1]: 2% | killing [2, 3]: 99.9% | log decrease in CFU [2, 3]: > 3 log | killing [2, 4]: 99.9% | log decrease in CFU [2, 4]: > 3 log | killing [2, 5]: 99.9% | log decrease in CFU [2, 5]: > 3 log | killing [2, 6]: 99.9% | log decrease in CFU [2, 6]: > 3 log | killing [2, 7]: 99.9% | log decrease in CFU [2, 7]: > 3 log | killing [2, 8]: 99.9% | log decrease in CFU [2, 8]: > 3 log | killing [2, 9]: 99.9% | log decrease in CFU [2, 9]: > 3 log | killing [2, 10]: 99.9% | log decrease in CFU [2, 10]: > 3 log | killing [2, 11]: 99.9% | log decrease in CFU [2, 11]: > 3 log | bacterial growth on TSA plates (E. coli; 5% CG-101 in 5% aqueous Poloxamer 407, 48 hr incubation): No bacterial growth | bacterial growth on TSA plates (E. coli; 5% CG-101 in 10% aqueous Poloxamer 407, 48 hr incubation): No bacterial growth | bacterial growth on TSA plates (E. coli; 5% CG-101 in water (positive control of this study), 48 hr incubation): No bacterial growth
